Measurements taken from US20240315219A1, “ANIMAL MODEL FOR DISEASES ASSOCIATED WITH ABSENCE OR REDUCTION OF SOCIAL DOMINANCE, AND PHARMACEUTICAL COMPOSITION FOR PREVENTING OR TREATING DISEASES” (ADEL, Inc., priority 2021, published 2024).

What was measured:
C57BL/6 mice = experiment: Tube dominance test, lowest-ranked mouse in C57BL/6 mouse group; assay type: in vivo; settings: lowest-ranked C57BL/6 mouse, intracerebroventricular via osmotic pump
Protocol: (§1) The apparatus for the tube dominance test was made of a transparent plastic tube with a length of 30 cm and an inner diameter of 2.5 cm. To allow the mice to adapt to passing through the inside of the tube, the respective mice were trained to pass across the tube alternately on both sides for two or three consecutive days. During the training period, care was taken to ensure that the mice passed through the tube as naturally as possible without causing stress. This test was performed after identifying that all mice could freely pass through the tube without stress.
During the dominance test period, a total of 2 mice, one at each end of the tube, were placed to meet in the middle of the tube. In a case where one mouse pushed the other mouse out of the tube, one (1) winning point was earned. The test was repeated three times. For example, in a case where one mouse earned 2 or 3 winning points, the mouse was considered a winner and the other mouse was considered a loser. For the mice housed in the same cage, the tube test was performed on three mice in turn to determine social dominance ranking. For example, for mouse no. 1, the tube test was performed with mouse nos. 2 and 3. In a case where mouse no. 1 wins both mice, it is ranked first. Meanwhile, in a case where mouse no. 2 loses to mouse no. 1 and wins mouse no. 3, it is ranked second. In the two tests, mouse no. 3 is ranked third since it loses to both mice. For each test, win or loss was determined by winning points.
(§2) First, starting at 1 month of age, the CRTC3 KO mice and the WT mice were housed in one group and raised together for 2 months. This allowed social ranking to be naturally formed among the mice in the same group. To determine changes in ranking of the mice in the group, social dominance ranking was evaluated by a tube dominance test daily for 15 days starting at 3 months of age. The respective mice in the group were tested in turn, and dominance ranking of the mice in the group was determined based on their winning points. […]

CRTC3 KO mice = experiment: Tube dominance test, CRTC3 KO mice housed with WT mice; assay type: in vivo, mouse
Protocol: as §1
During the dominance test period, a total of 2 mice, one at each end of the tube, were placed to meet in the middle of the tube. In a case where one mouse pushed the other mouse out of the tube, one (1) winning point was earned. The test was repeated three times. […] For each test, win or loss was determined by winning points. […]
as §2, with “This allowed social ranking to be naturally formed among the mice in the same group.” left out

wild-type rats = experiment: Brain fMRI, resting-state functional connectivity (rsFC) in wild-type rats; assay type: in vivo, rat; settings: SD rats, vs PBS group
Protocol: To identify which regions of the brain are affected by administration of AREG-EGF, fMRI was performed on wild-type rats injected with AREG-EGF. The rats having received PBS as a control and the rats having received AREG-EGF were imaged with fMRI one month later, in which interaction signals between various regions in the brain were checked. Specifically, the rats, which are SD (Spraque Dawley) rat species, were eight, 5- to 6-week-old male rats purchased from Orient Bio. AREG-EGF was administered to the rats by intracerebroventricular injection (ICV) on Weeks 6 to 7 after the purchase, and fMRI imaging was performed 21 days after the administration. The fMRI imaging was performed in such a way that first imaging was performed on an anesthetized rat under normal conditions (pre-state), and then fMRI re-imaging was performed on the same rat by placing cotton soaked in the urine of another rat, which it had never encountered, so that the rat being imaged can sniff the cotton (post-state). For rodents, social responses such as social identification occur through urine marking done by the other individuals. Thus, urine from an unfamiliar rat was used to elicit social responses. For specific methods of administering AREG-EGF and performing MRI analysis, see Experimental Examples 2.1 and 3. […]

Substance: mEGF: Recombinant mouse EGF from R&D Systems, SEQ ID NO: 12; control (NSYPGCPSSYDGYCLNGGVCMHIESLDSYTCNCVIGYSGDRCQTRDLRWWELR; Mouse EGF Protein; listed as Mus musculus) [reference compound]
- cages in which ranking of the lowest-ranked mouse increased after administration (C57BL/6 mice): 0%

Substance: AREG-HB: Peptide of the heparin-binding domain of amphiregulin, SEQ ID NO: 14, from Peptron; control (SVRVEQVVKPPQNKTESENTSDKPKRKKKGGKNGKNRRNRK; AREG-HB Peptide) [reference compound]
- cages in which ranking of the lowest-ranked mouse increased after administration (C57BL/6 mice): 10%

Substance: AREG-EGF: Peptide of the EGF domain of amphiregulin, SEQ ID NO: 13, from Peptron (KKNPCNAEFQNFCIHGECKYIEHLEAVTCKCQQEYFGERCGEK; AREG-EGF Peptide)
- cages in which changes (increase) in social dominance ranking were observed after administration (CRTC3 KO mice; CRTC3 KO mice with low ranking, housed with WT mice, intracerebroventricular via osmotic pump): 50%
- winning points after vs before administration (CRTC3 KO mice; CRTC3 KO mice, ICV osmotic pump): changes in winning points and increases in tube test ranking
- cages in which ranking of the lowest-ranked mouse increased after administration (C57BL/6 mice): 80%
- rsFC between PFC and PC (average z-transformed correlation coefficient) (wild-type rats; ICV osmotic pump, fMRI 21 days after): significantly high activity
- rsFC seed-correlation spatial map, seed Cg1/2 (24b′/24a′) (wild-type rats; ICV): significantly enhanced region was observed in PC
